The target of this assay is T1, recombinant human PKM2 (Homo sapiens, UniProt P14618).
T1 construct: His (N); purchased R&D Systems
Put plainly: Human PKM2 activation assay (Kinase-Glo Plus luminescent detection of generated ATP). Type of assay: biochemical. To be noted: for Emax: read-out: hPKM2 Emax; for EC50: recombinant human PKM2 activation, 4-parameter logistic fit, read-out: hPKM2 EC50. Put shortly: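 Luminescent ATP detection (Kinase-Glo Plus, 15 min, 26 °C) followed a 60 min, 26 °C shaken reaction of compound with […] His-tagged human PKM2, PEP and ADP in imidazole/KCl/MgCl2 buffer with Tween20 and BSA, pH 7.2.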
A general note: In Kinase-Glo more light means more ATP remaining.

The mark [1] stands for this setting: percentage activation normalised to DMSO vehicle (LOW) and 5 μM TEPP-46 (HIGH).

T1 sequence (P14618 2-531 limits assumed): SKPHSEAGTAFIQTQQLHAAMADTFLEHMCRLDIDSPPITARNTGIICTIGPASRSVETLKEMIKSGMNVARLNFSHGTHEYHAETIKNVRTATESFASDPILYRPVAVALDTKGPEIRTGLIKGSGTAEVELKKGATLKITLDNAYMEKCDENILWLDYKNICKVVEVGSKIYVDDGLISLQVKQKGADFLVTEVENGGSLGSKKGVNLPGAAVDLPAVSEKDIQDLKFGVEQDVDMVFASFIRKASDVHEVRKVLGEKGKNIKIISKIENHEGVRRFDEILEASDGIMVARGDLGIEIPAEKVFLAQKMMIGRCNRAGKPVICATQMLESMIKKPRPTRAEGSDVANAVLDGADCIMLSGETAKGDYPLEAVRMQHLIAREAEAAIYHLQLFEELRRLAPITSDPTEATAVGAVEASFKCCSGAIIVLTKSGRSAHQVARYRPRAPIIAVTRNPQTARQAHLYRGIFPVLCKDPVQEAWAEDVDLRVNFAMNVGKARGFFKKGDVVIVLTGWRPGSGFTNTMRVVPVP

For the compound `Cn1ccc(S(=O)(=O)c2ccc3c(=O)n(Cc4cc[nH]n4)ncc3c2)n1` [Example 306], the half-maximal effective concentration (EC50) (in general, the concentration giving half of the maximal effect) came out at 0.241 µM. In addition, the Emax (as a rule, the greatest response seen or fitted, relative to the assay's reference) under setting [1] was 104%.
Taken in the same sequence, the figures for `COc1ccc(Cn2ncc3cc(S(=O)(=O)c4cn[nH]c4)ccc3c2=O)nc1C` [Example 291, 6-(1H-pyrazol-4-ylsulfonyl)-2-((5-methoxy-6-methylpyridin-2-yl)methyl)phthalazin-1(2H)-one] were 0.988 µM and 82.8%.
`COc1ccc(Cn2ncc3cc(S(=O)(=O)c4cc[nH]n4)ccc3c2=O)cn1` [Example 140, 6-((1H-pyrazol-3-yl)sulfonyl)-2-((6-methoxypyridin-3-yl)methyl)phthalazin-1(2H)-one]: the EC50 turned out to be 0.192 µM. In addition, the maximum response (Emax) under setting [1] worked out at 107%.
As to `COc1ccc(Cn2ncc3cc(S(=O)(=O)c4ccc5c(c4)OCCO5)ccc3c2=O)cn1` [Example 182, 6-((2,3-dihydrobenzo[b][1,4]dioxin-6-yl)sulfonyl)-2-((6-methoxypyridin-3-yl)methyl)phthalazin-1(2H)-one], the concentration giving a half-maximal response (EC50) came to 0.0152 µM. In addition, under setting [1], the Emax was 80.2%.
On to `Cc1nc(Cn2ncc3cc(S(=O)(=O)c4cn[nH]c4)ccc3c2=O)c(F)cc1F` [Example 342], for which the concentration for a half-maximal effect (EC50) turned out to be 0.0844 µM. Further, under setting [1], the maximum response (Emax) came out at 104%.
Taken in the same sequence, the figures for `COc1ccc(Cn2ncc3cc(S(=O)(=O)c4ccsc4C(N)=O)ccc3c2=O)cn1` [Example 117, 3-(2-((6-methoxypyridin-3-yl)methyl)-1-oxo-1,2-dihydrophthalazin-6-ylsulfonyl)thiophene-2-carboxamide] were 0.177 µM and 77%.
As for `COc1ccc(S(=O)(=O)c2ccc3c(=O)n(Cc4cc[nH]n4)ncc3c2)nc1` [Example 257, 2-((1H-pyrazol-3-yl)methyl)-6-((5-methoxypyridin-2-yl)sulfonyl)phthalazin-1(2H)-one], the half-maximal effective concentration (EC50) was 0.161 µM. In addition, the Emax under setting [1] came out at 99.3%.
For the compound `COc1ccc(Cn2ncc3cc([S@@](=N)(=O)c4ccc(OC(F)F)cc4)ccc3c2=O)cn1` (single isomer, unassigned) [Example 136], the concentration for a half-maximal effect (EC50) is 0.0465 µM. Moreover, the maximal effect (Emax) under setting [1] came out at 97.2%.
On to `O=c1c2ccc(S(=O)(=O)c3cnc4c(c3)OCCO4)cc2cnn1Cc1cc[nH]n1` [Example 234, 2-((1H-pyrazol-3-yl)methyl)-6-((2,3-dihydro-[1,4]dioxino[2,3-b]pyridin-7-yl)sulfonyl)phthalazin-1(2H)-one], for which the EC50 worked out at 0.394 µM. In addition, the Emax under setting [1] is 91.9%.
Turning to “2-(3-aminobenzyl)-6-((2-mathylthiazol-4-yl)sulfonyl)phthalazin-1(2H)-one [Example 151]”, the EC50 stood at 0.0365 µM. In addition, the “hPKM2 Emax” value under setting [1] was 92.52%.
Take `O=c1c2ccc(S(=O)(=O)c3cnn(C(F)F)c3)cc2cnn1Cc1cc[nH]n1` [Example 305]: the maximal effect (Emax) under setting [1] turned out to be 99.9%.
As to `Cc1cccc(Cn2ncc3cc(S(=O)(=O)c4n[nH]cc4F)ccc3c2=O)n1` [Example 316], the EC50 came out at 0.2 µM. Moreover, the maximum response (Emax) under setting [1] was determined as 110%.
Take `COc1ccc(Cn2ncc3cc(S(=O)(=O)c4ccccc4)ccc3c2=O)c(C(N)=O)n1` [Example 14, 6-methoxy-3-((1-oxo-6-(phenylsulfonyl)phthalazin-2(1H)-yl)methyl)picolinamide]: the EC50 was 0.147 µM. Also, under setting [1], the Emax amounted to 95.5%.
Taken in the same sequence, the figures for `Cn1cc(S(=O)(=O)c2cc3cnn(Cc4cc[nH]n4)c(=O)c3cc2NCCO)cn1` [Example 268, 2-((1H-pyrazol-3-yl)methyl)-7-((2-hydroxyethyl)amino)-6-((1-methyl-1H-pyrazol-4-yl)sulfonyl)phthalazin-1(2H)-one] were 0.352 µM and 102%.
For the compound `COc1ccc(Cn2ncc3cc(S(=O)(=O)c4cnn(C)c4C)ccc3c2=O)cn1` [Example 190, 6-(1,5-dimethyl-1H-pyrazol-4-ylsulfonyl)-2-((6-methoxypyridin-3-yl)methyl)phthalazin-1(2H)-one], the concentration giving a half-maximal response (EC50) was 0.225 µM. The maximum response (Emax) under setting [1] was 102%.
In the case of `Cc1c[nH]nc1Cn1ncc2cc(S(=O)(=O)c3cnn(C)c3)ccc2c1=O` [Example 313], the EC50 amounted to 0.196 µM. Moreover, the maximal effect (Emax) under setting [1] is 92.3%.
Taken in the same sequence, the figures for `Cc1onc(C(N)=O)c1Cn1ncc2cc(S(=O)(=O)c3ccccc3)ccc2c1=O` [Example 94, 5-methyl-4-((1-oxo-6-(phenylsulfonyl)phthalazin-2(1H)-yl)methyl) isoxazole-3-carboxamide] were 0.588 µM and 71.3%.
Taken in the same sequence, the figures for `COc1ccc(Cn2ncc3cc(S(=N)(=O)c4ccc(OC(F)F)cc4)ccc3c2=O)cn1` (racemic) [Example 134, 6-(4-(difluoromethoxy)phenylsulfonimidoyl)-2-((6-methoxypyridin-3-yl)methyl)phthalazin-1(2H)-one] were 0.0881 µM and 102%.
With `Cc1cccc(Cn2ncc3cc(S(=O)(=O)c4cnn(C)c4)ccc3c2=O)n1` [Example 204, 6-((1-methyl-1H-pyrazol-4-yl)sulfonyl)-2-((6-methylpyridin-2-yl)methyl)phthalazin-1(2H)-one], the half-maximal effective concentration (EC50) was 0.282 µM. In addition, the Emax under setting [1] was 122%.
Taken in the same sequence, the figures for `N=S(=O)(c1ccccc1)c1ccc2c(=O)n(Cc3cccc(N)c3)ncc2c1` (stereo not drawn) [Example 120, 2-(3-aminobenzyl)-6-(phenylsulfonimidoyl)phthalazin-1(2H)-one] were 0.234 µM and 103%.
For `COc1ccc(S(=O)(=O)c2ccc3c(=O)n(Cc4ccc(OC)nc4O)ncc3c2)cc1` [Example 109, 2-((2-hydroxy-6-methoxypyridin-3-yl)methyl)-6-(4-methoxyphenylsulfonyl)phthalazin-1(2H)-one], the EC50 stood at 0.141 µM. Besides, the Emax under setting [1] stood at 96.5%.
As for `COc1cccc(S(=O)(=O)c2ccc3c(=O)n(Cc4ccc(OC)nc4)ncc3c2)c1` [Example 116, 6-(3-methoxyphenylsulfonyl)-2-((6-methoxypyridin-3-yl)methyl)phthalazin-1(2H)-one], the EC50 was found to be 0.0595 µM. Also, the Emax under setting [1] came out at 96.1%.
As for `Cc1cc(Cn2ncc3cc(S(=O)(=O)c4cn[nH]c4)ncc3c2=O)n[nH]1` [Example 300, 7-((1H-pyrazol-4-yl)sulfonyl)-3-((5-methyl-1H-pyrazol-3-yl)methyl)pyrido[3,4-d]pyridazin-4(3H)-one], the concentration for a half-maximal effect (EC50) turned out to be 0.099 µM. Besides, under setting [1], the Emax came to 93.2%.
For the compound `Cc1ccc(S(=O)(=O)c2ccc3c(=O)n(Cc4cc[nH]n4)ncc3c2)nc1` [Example 289, 2-((1H-pyrazol-3-yl)methyl)-6-((5-methylpyridin-2-yl)sulfonyl)phthalazin-1(2H)-one], the EC50 came to 0.319 µM. Besides, under setting [1], the maximum response (Emax) was 91.8%.
For `Nc1cccc(Cn2ncc3cc(S(=O)(=O)c4cccnc4)ccc3c2=O)c1` [Example 121, 2-(3-aminobenzyl)-6-(pyridin-3-ylsulfonyl)phthalazin-1(2H)-one], the EC50 came to 0.62 µM. Further, the maximal effect (Emax) under setting [1] worked out at 116%.
With `Cc1cc(Cn2ncc3cc(S(=O)(=O)c4ccccc4)ccc3c2=O)no1` [Example 80, 2-((5-methylisoxazol-3-yl)methyl)-6-(phenylsulfonyl)phthalazin-1(2H)-one], the EC50 is 0.799 µM. The Emax under setting [1] was found to be 93.2%.
Take `COc1ccc(Cn2ncc3cc(S(=O)(=O)Nc4ccccc4)ccc3c2=O)cn1` [Example 122, 2-((6-methoxypyridin-3-yl)methyl)-1-oxo-N-phenyl-1,2-dihydrophthalazine-6-sulfonamide]: the EC50 was determined as 0.59 µM. In addition, under setting [1], the Emax came to 60%.
As to `O=c1c2ccc(S(=O)(=O)c3cnn(CC(F)(F)F)c3)cc2cnn1Cc1cc[nH]n1` [Example 361], the EC50 was determined as 0.0794 µM. Further, the Emax under setting [1] turned out to be 93.2%.
Take `COc1ccc(S(=O)(=O)c2ccc3c(=O)n(Cc4c(O)ccnc4O)ncc3c2)cc1` [Example 255, 2-((2,4-dihydroxypyridin-3-yl)methyl)-6-(4-methoxyphenylsulfonyl)phthalazin-1(2H)-one]: the concentration for a half-maximal effect (EC50) is 0.155 µM. Also, the Emax under setting [1] was 104%.
Regarding `Cc1c[nH]nc1Cn1ncc2cc(S(=O)(=O)c3ccc4c(c3)CCO4)ccc2c1=O` [Example 208, 6-((2,3-dihydrobenzofuran-5-yl)sulfonyl)-2-((4-methyl-1H-pyrazol-3-yl)methyl)phthalazin-1(2H)-one], the EC50 turned out to be 0.0333 µM. For the same compound, the Emax under setting [1] is 104%.
Regarding `CC(c1cccnc1)n1ncc2cc(S(=O)(=O)c3ccccc3)ccc2c1=O` (stereo not drawn) [Example 69, 6-(phenylsulfonyl)-2-(1-(pyridin-3-yl)ethyl)phthalazin-1(2H)-one], the EC50 stood at 1.17 µM. The maximal effect (Emax) under setting [1] is 75.5%.
As for `COc1ncccc1Cn1ncc2cc(S(=O)(=O)c3ccccc3)ccc2c1=O` [Example 88, 2-((2-methoxypyridin-3-yl)methyl)-6-(phenylsulfonyl)phthalazin-1(2H)-one], the EC50 amounted to 0.618 µM. Besides, the maximal effect (Emax) under setting [1] came out at 93.2%.
As to `COc1ccc(S(=O)(=O)c2ccc3c(=O)n(Cc4ccn(CCO)n4)ncc3c2)nc1` [Example 292, 2-((1-(2-hydroxyethyl)-1H-pyrazol-3-yl)methyl)-6-((5-methoxypyridin-2-yl)sulfonyl)phthalazin-1(2H)-one], the EC50 worked out at 0.285 µM. For the same compound, the maximum response (Emax) under setting [1] worked out at 86.6%.
For the compound `O=c1c2ccc(S(=O)(=O)c3cnn(C(F)F)c3)cc2cnn1Cc1ccc2c(n1)CCO2` [Example 340], the EC50 was found to be 0.0293 µM. The maximum response (Emax) under setting [1] was determined as 111%.
With `Cc1ccc(S(=O)(=O)c2ccc3c(=O)n(Cc4cc[nH]n4)ncc3c2)cn1` [Example 290, 2-((1H-pyrazol-3-yl)methyl)-6-((6-methylpyridin-3-yl)sulfonyl)phthalazin-1(2H)-one], the EC50 was determined as 0.594 µM. Also, the Emax under setting [1] came out at 106%.

Values taken from US20260152487A1 (Sitryx Therapeutics Limited, priority 2021, published 2026).
